The values below come from patent US20240368230A1, “CELL-PENETRATING PEPTIDES COMPRISING MULTIPLE 5-MER ALPHA-HELIX FRAGMENTS AND USES THEREOF” (ArtProBio Co., Ltd., priority 2023, published 2024).

One series has as its system BALB/c nude mice. As to the kind of experiment: In-vivo fluorescence imaging (IVIS) of living mice, targeting. Conditions: FAM-labeled, IV 5 mg/kg, 4 hours; for bioaccumulation / targeting activity in the body: comparison with existing CPPs; for in-vivo targeting site: 200 μL. The method, then: All animal experimental procedures including sample administration and euthanasia were performed in accordance with the strict guidelines of the Yonsei University Health System Institutional Animal Care and Use Committee. Female 7-week BALB/c nude mice were purchased from Orient Bio Company (Korea). Fluorescence-labeled peptide (sample) (10 mg/kg) was injected via the lateral tail vein of the mice. Fluorescence images were acquired at different times (0, 4, 8 and 12 hours) using an in-vivo imaging system (IVIS; PerkinElmer, USA) and the images were analyzed with the Living Image software (PerkinElmer).
Female 7-week-old BALB/c nude mice were injected IV (intravenously) with the cell-penetrating peptide prepared in Example 10 (CPP10) at 10 mg/kg or 1 mg/kg via the lateral tail vein and imaged using IVIS (in-vivo imaging system) (PerkinElmer, USA) 4 hours later. The images were analyzed with the Living Image software (PerkinElmer). The mice were analyzed from the top, bottom (belly) and side positions (FIG. 44A). Then, after administering the same volume of the cell-penetrating peptide prepared in Example 10 (CPP10) at 10 mg/kg via IV (intravenous) or IP (intraperitoneal) injection, the mice were imaged 4 hours later (FIG. 44B).
Next, female 7-week-old BALB/c nude mice were injected IV (intravenously) with the cell-penetrating peptide of Example 10 (CPP10), the cell-penetrating peptide of Example 11 (CPP11) or the cell-penetrating peptide of Example 14 (CPP11d) at 10 mg/kg via the lateral tail vein, and they were imaged 30 minutes and 6 hours later using IVIS (in-vivo imaging system) (PerkinElmer, USA). The images were analyzed with the Living Image software (PerkinElmer) (FIG. 44C). In FIGS. 44A and 44B, the cell-penetrating peptides were labeled with TAMRA (5 (6)-carboxytetramethylrhodamine). In FIG. 44C, the cell-penetrating peptides were labeled with FAM.
The images were analyzed with the Living Image software (PerkinElmer) (FIGS. 50 and 51).
The cell-penetrating peptide prepared in Example 11 (CPP11) was also administered at the same concentration and then analyzed by IVIS 1 hour later (FIG. 51). The cell-penetrating peptide was used after labeling with FAM.
4 hours later, the mice were imaged using IVIS (in-vivo imaging system) (PerkinElmer, USA) and the images were analyzed with the Living Image software (PerkinElmer) (FIG. 53).
The cell-penetrating peptide prepared in Example 11 (CPP11) was also administered at the same concentration and then analyzed by IVIS 1 hour later (FIG. 53). The cell-penetrating peptide was used after labeling with FAM.
Female 7-week-old BALB/c nude mice were injected IV (intravenously) with 200 μL of the cell-penetrating peptide of Example 11 (CPP11) or the existing cell-penetrating peptides (Rev ARM, Tat, penetratin and R8) at 5 mg/kg via the lateral tail vein. 4 hours later, the mice were imaged using IVIS (in-vivo imaging system) (PerkinElmer, USA) and the images were analyzed with the Living Image software (PerkinElmer) (FIGS. 54 and 55). The cell-penetrating peptides were used after labeling with FAM.

The nature of series [1]: CD spectroscopy of cell-penetrating peptides (helicity). Conditions: for helicity ([θ]222/[θ]208): CD spectra; for secondary structure / helix stabilization by CD: 10 mM potassium phosphate, pH 7.4, 20° C.
Method: The concentration of peptides/proteins was 5-20 μM in general. Spectra were obtained using a Jasco J-1500 CD spectrometer (JASCO, Japan) or a Chirascan CD spectrometer (Applied Photophysics, UK). Scanning was carried out using a cuvette with a path length of 1 mm. MRE (mean residue ellipticity) was calculated per amino acid residue.
The cell-penetrating peptides (CPP1 TO 13 and CPP11d) were dissolved respectively in 10 mM potassium phosphate. The analysis was performed under the condition of pH 7.4 and 20° C.

Where a SMILES comes first, the peptide text is derived from it. Where no end group is shown, it is not given here. [ ]: non-standard residue; d: D form. Aib = CC(C)(N)C(=O)O

For RRRRRRRR [R8, reference compound], in the series on BALB/c nude mice, the bioaccumulation result was “did not show significant bioaccumulation” and the “targeting activity in the body” value was “did not show targeting activity for specific sites in the body”.
Take `C[C@H](NC(=O)[C@H](CCC(N)=O)NC(=O)C(C)(C)NC(=O)CNC(=O)C(C)(C)NC(=O)[C@H](CC(N)=O)NC(=O)[C@H](CCCNC(=N)N)NC(=O)[C@H](CCCNC(=N)N)NC(=O)[C@H](C)NC(=O)[C@H](CCC(N)=O)NC(=O)C(C)(C)NC(=O)CNC(=O)C(C)(C)NC(=O)[C@H](CC(N)=O)NC(=O)[C@H](CCCNC(=N)N)NC(=O)[C@H](CCCNC(=N)N)NC(=O)[C@H](C)NC(=O)[C@H](CCC(N)=O)NC(=O)C(C)(C)NC(=O)[C@H](C)NC(=O)C(C)(C)N)C(=O)N[C@@H](CCCNC(=N)N)C(=O)N[C@@H](CCCNC(=N)N)C(=O)N[C@@H](CC(N)=O)C(=O)NC(C)(C)C(=O)NCC(=O)NC(C)(C)C(=O)N[C@@H](CCC(N)=O)C(=O)N[C@@H](C)C(=O)N[C@@H](CCCNC(=N)N)C(=O)N[C@@H](CCCNC(=N)N)C(=O)N[C@@H](CC(N)=O)C(=O)NC(C)(C)C(=O)N[C@@H](C)C(=O)NC(C)(C)C(N)=O` [CPP21] (HELM PEPTIDE1{[Aib].A.[Aib].Q.A.R.R.N.[Aib].G.[Aib].Q.A.R.R.N.[Aib].G.[Aib].Q.A.R.R.N.[Aib].G.[Aib].Q.A.R.R.N.[Aib].A.[Aib].[am]}$$$$V2.0; N-terminus assumed): in series [1] (listed as Example 22), the “helicity ([θ]222/[θ]208)” value came out at 0.500. Besides, the in-vivo targeting site entry in the series on BALB/c nude mice was “target the ear”.
On to “UAUNARRQUAUNARRQUAUNARRQUAUNARRQUAU ([Aib]A[Aib]NARRQ[Aib]A[Aib]NARRQ[Aib]A[Aib]NARRQ[Aib]A[Aib]NARRQ[Aib]A[Aib]-NH2) [CPP18]”, for which the “helicity ([θ]222/[θ]208)” value in series [1] stood at 0.72.
As for “UAUQRARNUAUQRARNUAUQRARNUAUQRARNUAU ([Aib]A[Aib]QRARN[Aib]A[Aib]QRARN[Aib]A[Aib]QRARN[Aib]A[Aib]QRARN[Aib]A[Aib]-NH2; not fully specified) [CPP14]”, the “helicity ([θ]222/[θ]208)” value in series [1] is reported as 0.81.
QARRNQARRNQARRNQARRN [CPP6]: the “secondary structure / helix stabilization by CD” value in series [1] is “mostly in random coil state”.
In the case of “AUAUARQARRNRQARRNRQARRNAUAUA (A[Aib]A[Aib]ARQARRNRQARRNRQARRNA[Aib]A[Aib]A; not fully specified (C-terminus)) [CPP4]”, the “secondary structure / helix stabilization by CD” value in series [1] is recorded as “helical structure was somewhat stabilized”.
Regarding “UAUNRARQUAUNRARQUAUNRARQUAUNRARQUAU ([Aib]A[Aib]NRARQ[Aib]A[Aib]NRARQ[Aib]A[Aib]NRARQ[Aib]A[Aib]NRARQ[Aib]A[Aib]-NH2) [CPP17]”, the “helicity ([θ]222/[θ]208)” value in series [1] amounted to 0.78.
For `C[C@H](NC(=O)[C@H](CCC(N)=O)NC(=O)C(C)(C)NC(=O)CNC(=O)C(C)(C)NC(=O)[C@H](CC(N)=O)NC(=O)[C@H](CCCNC(=N)N)NC(=O)[C@H](CCCNC(=N)N)NC(=O)[C@H](C)NC(=O)[C@H](CCC(N)=O)NC(=O)C(C)(C)NC(=O)[C@H](C)NC(=O)C(C)(C)NC(=O)[C@H](CC(N)=O)NC(=O)[C@H](CCCNC(=N)N)NC(=O)[C@H](CCCNC(=N)N)NC(=O)[C@H](C)NC(=O)[C@H](CCC(N)=O)NC(=O)C(C)(C)NC(=O)[C@H](C)NC(=O)C(C)(C)N)C(=O)N[C@@H](CCCNC(=N)N)C(=O)N[C@@H](CCCNC(=N)N)C(=O)N[C@@H](CC(N)=O)C(=O)NC(C)(C)C(=O)NCC(=O)NC(C)(C)C(=O)N[C@@H](CCC(N)=O)C(=O)N[C@@H](C)C(=O)N[C@@H](CCCNC(=N)N)C(=O)N[C@@H](CCCNC(=N)N)C(=O)N[C@@H](CC(N)=O)C(=O)NC(C)(C)C(=O)N[C@@H](C)C(=O)NC(C)(C)C(N)=O` [CPP20] (HELM PEPTIDE1{[Aib].A.[Aib].Q.A.R.R.N.[Aib].A.[Aib].Q.A.R.R.N.[Aib].G.[Aib].Q.A.R.R.N.[Aib].G.[Aib].Q.A.R.R.N.[Aib].A.[Aib].[am]}$$$$V2.0; N-terminus assumed), the “helicity ([θ]222/[θ]208)” value in series [1] (listed as Example 21) came to 0.565. For the same molecule, in the series with BALB/c nude mice, the in-vivo targeting site result is listed as “target the ear”. Further, in the series on BALB/c nude mice (among CPP19 to 21), the “accumulation efficiency in the ear” value is “much superior accumulation efficiency in the ear”.
For “UAUNRRAQUAUNRRAQUAUNRRAQUAUNRRAQUAU ([Aib]A[Aib]NRRAQ[Aib]A[Aib]NRRAQ[Aib]A[Aib]NRRAQ[Aib]A[Aib]NRRAQ[Aib]A[Aib]-NH2) [CPP16]”, in series [1], the “helicity ([θ]222/[θ]208)” value is reported as 0.66.
In the case of “TRQARRNRRRRWRERQR [Rev ARM, reference compound]”, in the series with BALB/c nude mice, the bioaccumulation entry was “did not show significant bioaccumulation” and the “targeting activity in the body” value is given as “did not show targeting activity for specific sites in the body”.
As for QARRNQARRNQARRNQARRNQARRN [CPP7], the “secondary structure / helix stabilization by CD” value in series [1] is recorded as “mostly in random coil state”.
For `C[C@H](NC(=O)[C@H](CCC(N)=O)NC(=O)C(C)(C)NC(=O)CNC(=O)C(C)(C)NC(=O)[C@H](CC(N)=O)NC(=O)[C@H](CCCNC(=N)N)NC(=O)[C@H](CCCNC(=N)N)NC(=O)[C@H](C)NC(=O)[C@H](CCC(N)=O)NC(=O)C(C)(C)NC(=O)[C@H](C)NC(=O)C(C)(C)NC(=O)[C@H](CC(N)=O)NC(=O)[C@H](CCCNC(=N)N)NC(=O)[C@H](CCCNC(=N)N)NC(=O)[C@H](C)NC(=O)[C@H](CCC(N)=O)NC(=O)C(C)(C)NC(=O)[C@H](C)NC(=O)C(C)(C)NC(=O)[C@H](CC(N)=O)NC(=O)[C@H](CCCNC(=N)N)NC(=O)[C@H](CCCNC(=N)N)NC(=O)[C@H](C)NC(=O)[C@H](CCC(N)=O)NC(=O)C(C)(C)NC(=O)[C@H](C)NC(=O)C(C)(C)N)C(=O)N[C@@H](CCCNC(=N)N)C(=O)N[C@@H](CCCNC(=N)N)C(=O)N[C@@H](CC(N)=O)C(=O)NC(C)(C)C(=O)N[C@@H](C)C(=O)NC(C)(C)C(N)=O` [CPP19] (HELM PEPTIDE1{[Aib].A.[Aib].Q.A.R.R.N.[Aib].A.[Aib].Q.A.R.R.N.[Aib].A.[Aib].Q.A.R.R.N.[Aib].G.[Aib].Q.A.R.R.N.[Aib].A.[Aib].[am]}$$$$V2.0; N-terminus assumed), the “helicity ([θ]222/[θ]208)” value in series [1] was at least 0.7; in series [1] (listed as Example 20) it was 0.706. For the same molecule, the in-vivo targeting site result with BALB/c nude mice was “target the ear”.
`N=C(N)NCCC[C@H](NC(=O)[C@H](CCCNC(=N)N)NC(=O)[C@H](CCCNC(=N)N)NC(=O)[C@H](CCC(N)=O)NC(=O)[C@H](CCCNC(=N)N)NC(=O)[C@H](CCCNC(=N)N)NC(=O)[C@H](CCCCN)NC(=O)[C@H](CCCCN)NC(=O)[C@H](CCCNC(=N)N)NC(=O)CNC(=O)[C@@H](N)Cc1ccc(O)cc1)C(N)=O` [Tat, Tyr-Gly-Arg-Lys-Lys-Arg-Arg-Gln-Arg-Arg-Arg, reference compound]: in the series with BALB/c nude mice, the bioaccumulation result is “did not show significant bioaccumulation” and the “targeting activity in the body” value is recorded as “did not show targeting activity for specific sites in the body”.
Regarding “UAURQARRNUAURQARRNUAURQARRNUAURQARRNUAU ([Aib]A[Aib]RQARRN[Aib]A[Aib]RQARRN[Aib]A[Aib]RQARRN[Aib]A[Aib]RQARRN[Aib]A[Aib]; not fully specified (C-terminus)) [CPP5]”, in series [1], the “secondary structure / helix stabilization by CD” value is “helical structure was somewhat stabilized”.
Regarding “UAUQRRANUAUQRRANUAUQRRANUAUQRRANUAU ([Aib]A[Aib]QRRAN[Aib]A[Aib]QRRAN[Aib]A[Aib]QRRAN[Aib]A[Aib]QRRAN[Aib]A[Aib]-NH2; not fully specified) [CPP15]”, the “helicity ([θ]222/[θ]208)” value in series [1] is reported as 0.66.
For the molecule “UAUQARRNUAUQARRNUAUQARRNUAUQARRNUAUQARRNUAU ([Aib]A[Aib]QARRN[Aib]A[Aib]QARRN[Aib]A[Aib]QARRN[Aib]A[Aib]QARRN[Aib]A[Aib]QARRN[Aib]A[Aib]; not fully specified) [CPP13]”, in series [1], the “secondary structure / helix stabilization by CD” value was “not further increased”.
